Test system: Spontaneously hypertensive rats (SHR/Izm)
Test: Systolic blood pressure in spontaneously hypertensive rats after single dose of synthesized peptides (2) to (6) (tail-cuff method)
Format: in vivo, rat
Details: single dose 50 mg/kg body weight, *p < 0.05, **p < 0.01
Source text: The following peptides were synthesized according to known methods, based on the amino acid sequences of peptides isolated from the globin proteolysate prepared in Experimental Example 3 and identified. The peptide (WGKV; SEQ ID NO:3) (3) corresponds to a peptide produced by one amino acid deletion at the C terminus from the amino acid sequence of the peptide (WGKVN; SEQ ID NO:2) (2), and the peptide (WGK; SEQ ID NO:4) (4) corresponds to a peptide produced by deleting a further amino acid at the C terminus.
Spontaneously hypertensive rats (SHR/Izm, male, 12-week-old, body weight: 285 g, Japan SLC, Inc.) were administered in a single dose with the peptides synthesized above (peptides (2) to (6)) in an amount of 50 mg/kg body weight. Two, four, and six hours after the start of administration, the systolic blood pressures of the rats were measured using a non-heating non-invasive blood pressure monitor (“MK-2000”, manufactured by Muromachi Kikai Co., Ltd.) by the tail-cuff method without using anesthesia. Spontaneously hypertensive rats as a control group were orally administered with a solvent (distilled water), and the systolic blood pressures of the rats were measured in a similar manner.

| Substance | Reduction in blood pressure, 2 hours after administration | Reduction in blood pressure, 4 hours after administration | Reduction in blood pressure, 6 hours after administration |
| --- | --- | --- | --- |
| Ala-Ala-Trp-Gly-Lys (AAWGK; Peptide found in globin hydrolysate) | −7 ± 4 mmHg | −8 ± 12 mmHg | −4 ± 8 mmHg |
| Phe-Glu-Ser (FES; Peptide found in globin hydrolysate) | −15 ± 4* mmHg | −13 ± 8 mmHg | −15 ± 6 mmHg |
| Trp-Gly-Lys (WGK; Peptide found in globin hydrolysate) | −3 ± 7 mmHg | −23 ± 8** mmHg | −15 ± 8 mmHg |
| Trp-Gly-Lys-Val (WGKV; Peptide found in globin hydrolysate) | −9 ± 3 mmHg | −4 ± 4 mmHg | −3 ± 3 mmHg |
| Trp-Gly-Lys-Val-Asn (WGKVN; Peptide found in globin hydrolysate) | −16 ± 4** mmHg | −12 ± 4* mmHg | −14 ± 3** mmHg |
